The values that follow come from patent US20210347727A1 (BLADE THERAPEUTICS, INC., priority 2017, published 2021).

For one assay, the target named is T1, Human Calpain 1/NS1 (Homo sapiens, UniProt P07384).
T1 sequence (P07384 1-714): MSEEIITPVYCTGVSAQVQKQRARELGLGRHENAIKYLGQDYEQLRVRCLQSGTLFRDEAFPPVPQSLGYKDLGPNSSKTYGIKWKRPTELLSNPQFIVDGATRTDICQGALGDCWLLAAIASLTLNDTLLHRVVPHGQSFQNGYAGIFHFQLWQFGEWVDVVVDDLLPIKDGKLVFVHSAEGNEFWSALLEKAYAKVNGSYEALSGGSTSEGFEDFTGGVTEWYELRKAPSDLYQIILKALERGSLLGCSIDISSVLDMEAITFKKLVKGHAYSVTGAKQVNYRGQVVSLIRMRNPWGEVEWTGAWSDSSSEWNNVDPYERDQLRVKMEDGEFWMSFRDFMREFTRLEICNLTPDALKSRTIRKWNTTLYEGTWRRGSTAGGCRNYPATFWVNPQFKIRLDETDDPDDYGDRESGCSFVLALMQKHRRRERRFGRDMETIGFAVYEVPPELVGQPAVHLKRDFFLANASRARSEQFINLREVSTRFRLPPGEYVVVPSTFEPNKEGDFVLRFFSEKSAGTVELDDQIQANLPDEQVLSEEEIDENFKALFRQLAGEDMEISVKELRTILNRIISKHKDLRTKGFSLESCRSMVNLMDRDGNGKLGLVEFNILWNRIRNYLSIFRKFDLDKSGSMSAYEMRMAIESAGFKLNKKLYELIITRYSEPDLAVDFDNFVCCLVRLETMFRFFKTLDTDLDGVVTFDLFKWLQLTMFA
T1 sequence (P04632 1-268 partner): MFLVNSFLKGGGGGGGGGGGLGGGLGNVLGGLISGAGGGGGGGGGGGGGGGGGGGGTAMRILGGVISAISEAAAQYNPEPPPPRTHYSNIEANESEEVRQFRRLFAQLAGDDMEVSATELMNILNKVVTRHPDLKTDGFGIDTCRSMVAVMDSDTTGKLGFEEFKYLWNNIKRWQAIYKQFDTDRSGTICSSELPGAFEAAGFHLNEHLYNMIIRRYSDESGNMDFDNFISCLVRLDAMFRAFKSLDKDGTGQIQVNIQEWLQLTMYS
Briefly: Biochemical inhibition of calpain 1, continuous fluorescence (FRET substrate) assay. To be noted: mean; read-out: Human Calpain 1/NS1 IC50 (nM)_MEAN. The procedure: (§1) Calpain 1, 2, and 9 activity and inhibition thereof are assessed by means of a continuous fluorescence assay. The SensoLyte 520 Calpain substrate (Anaspec Inc) is optimized for detecting calpain activity. This substrate contains a novel internally quenched 5-FAM/QXL™ 520 FRET pair. Calpains 1, 2, and 9 cleave the FRET substrate into two separate fragments resulting in an increase of 5-FAM fluorescence that is proportional to calpain activity.
(§2) Assays are typically setup in black 384-well plates using automated liquid handling as follows. Calpain assay base buffer typically contains 50 mM Tris, pH 7.5, 100 mM NaCl and 1 mM DTT. Inhibitors are serially diluted in DMSO and used to setup 2× mixtures with calpains in the aforementioned buffer. After incubation at ambient temperature (25 C), the reaction is initiated by adding a 2× mix of the fluorescent peptide substrate and CaCl2 (required for in-situ calpain activation) in the same buffer. Reaction progress curve data are typically collected for 10 min using excitation/emission wavelengths of 490 nm/520 nm on SpectraMax i3x or the FLIPR-Tetra plate readers (Molecular Devices Inc). Reaction rates were calculated from progress curve slopes typically over 1-5 min. Dose response curves (rate vs. log inhibitor concentration) were typically fit to a 4-parameter logistic function to extract IC50 values.

The next assay addresses T2, Human Calpain 9/NS1 (Homo sapiens, UniProt O14815).
T2 sequence (O14815 1-690): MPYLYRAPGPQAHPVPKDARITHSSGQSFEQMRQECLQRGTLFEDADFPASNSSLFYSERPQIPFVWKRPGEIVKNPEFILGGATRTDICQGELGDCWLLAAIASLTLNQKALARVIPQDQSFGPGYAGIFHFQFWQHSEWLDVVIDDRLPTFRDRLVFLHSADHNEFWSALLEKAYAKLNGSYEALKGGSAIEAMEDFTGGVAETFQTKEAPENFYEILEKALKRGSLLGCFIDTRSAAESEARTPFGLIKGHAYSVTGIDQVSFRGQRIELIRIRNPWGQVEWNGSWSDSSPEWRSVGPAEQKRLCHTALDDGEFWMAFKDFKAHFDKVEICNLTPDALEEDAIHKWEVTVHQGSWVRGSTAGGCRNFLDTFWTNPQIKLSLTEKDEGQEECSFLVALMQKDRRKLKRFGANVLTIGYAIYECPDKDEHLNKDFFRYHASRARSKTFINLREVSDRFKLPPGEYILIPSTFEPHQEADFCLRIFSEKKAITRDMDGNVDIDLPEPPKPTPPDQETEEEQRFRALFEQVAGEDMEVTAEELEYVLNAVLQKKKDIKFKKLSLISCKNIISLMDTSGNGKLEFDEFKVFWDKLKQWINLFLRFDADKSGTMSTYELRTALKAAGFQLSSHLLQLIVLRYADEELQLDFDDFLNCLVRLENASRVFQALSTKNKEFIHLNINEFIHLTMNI
T2 sequence (P04632 1-268 partner): T1 sequence (P04632 1-268 partner)
Briefly: Biochemical inhibition of calpain 9, continuous fluorescence (FRET substrate) assay. Conditions: mean; read-out: Human Calpain 9/NS1 IC50 (nM)_MEAN. How it is done:
as §1, §2

Assay [1] concerns calpain activity in SH-SY5Y cells (Spectrin). Briefly: SH-SY5Y Spectrin cellular calpain inhibition. It counts as cell-based.
The target of another assay is T3, Human Calpain 2/NS1 (Homo sapiens, UniProt P17655).
T3 sequence (P17655 1-700): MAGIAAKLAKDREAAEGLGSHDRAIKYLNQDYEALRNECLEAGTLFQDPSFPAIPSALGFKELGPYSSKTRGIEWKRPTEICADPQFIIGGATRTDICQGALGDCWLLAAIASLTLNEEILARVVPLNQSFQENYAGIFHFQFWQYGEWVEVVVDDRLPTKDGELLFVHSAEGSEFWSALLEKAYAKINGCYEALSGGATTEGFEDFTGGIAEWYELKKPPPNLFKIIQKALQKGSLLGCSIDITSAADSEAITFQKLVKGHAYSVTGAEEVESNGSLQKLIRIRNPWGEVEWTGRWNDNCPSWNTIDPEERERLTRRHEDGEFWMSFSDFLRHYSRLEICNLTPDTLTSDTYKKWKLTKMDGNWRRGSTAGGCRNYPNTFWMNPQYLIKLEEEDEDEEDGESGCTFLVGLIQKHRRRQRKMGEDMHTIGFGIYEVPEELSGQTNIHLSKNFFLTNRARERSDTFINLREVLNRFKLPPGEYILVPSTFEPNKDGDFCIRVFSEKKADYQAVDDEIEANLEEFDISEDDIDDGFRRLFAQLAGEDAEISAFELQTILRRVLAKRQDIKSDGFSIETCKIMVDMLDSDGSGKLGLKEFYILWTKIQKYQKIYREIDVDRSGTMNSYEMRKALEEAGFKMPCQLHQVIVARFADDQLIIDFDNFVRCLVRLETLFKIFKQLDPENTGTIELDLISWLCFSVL
T3 sequence (P04632 1-268 partner): T1 sequence (P04632 1-268 partner)
Put plainly: Biochemical inhibition of calpain 2, continuous fluorescence (FRET substrate) assay. Conditions: mean; read-out: Human Calpain 2/NS1 1C50 [sic] (nM)_MEAN. How it is done:
as §1, §2

For assay [2], the system named is calpain activity in SH-SY5Y cells. Briefly: SH-SY5Y cellular calpain activity, Suc-LLVY-AMC fluorescence assay. It is filed as cell-based. Conditions: Suc-LLVY-AMC substrate. The procedure:
Calpain activity in SH-SY5Y cells and inhibition thereof were assessed by means of a homogeneous, fluorescence assay that uses the cell-permeable and pro-fluorescent calpain substrate Suc-LLVY-AMC (Sigma-Aldrich Inc). Upon intracellular calpain cleavage of Suc-LLVY-AMC, fluorescent amino-methyl-coumarin (AMC) is released into the media resulting in a continuous increase in fluorescence signal that is proportional to intra-cellular calpain activity.
Assays were typically setup by seeding SH-SY5Y cells in black 384-well plates at 40 k/per well in RPMI-1640 containing 1% serum followed by 37 C overnight incubation. Next morning, cells were pre-incubated for 30 min with serially diluted compounds followed by addition of 100 uM of Suc-LLVY-AMC substrate. The continuous increase in AMC fluorescence is monitored using a FLIPR, Tetra plate reader (Molecular Devices Inc) and slopes measured to report calpain activity. Dose response curves (slopes vs. log inhibitor concentration) were typically fit to a 4-parameter logistic function to extract IC50 values.

`NC(=O)C(=O)[C@H](Cc1ccccc1)NC(=O)c1c(F)cccc1I` [Compound 27, (S)—N-(4-AMINO-3,4-DIOXO-1-PHENYLBUTAN-2-YL)-2-FLUORO-6-IODOBENZAMIDE]: the IC50 is under 3000 nM at Human Calpain 1/NS1; under 3000 nM on Human Calpain 9/NS1; 10 to 25 µM in assay [1]; under 3000 nM at Human Calpain 2/NS1; under 10 µM in assay [2].
Regarding `Cc1ccc(F)c(C(=O)N[C@@H](Cc2ccccc2)C(=O)C(N)=O)c1Cl` [Compound 30, (S)—N-(4-AMINO-3,4-DIOXO-1-PHENYLBUTAN-2-YL)-2-CHLORO-6-FLUORO-3-METHYLBENZAMIDE], the IC50 on Human Calpain 1/NS1 was under 3000 nM; at Human Calpain 9/NS1, under 3000 nM; in assay [1], 10 to 25 µM; on Human Calpain 2/NS1, under 3000 nM; in assay [2], under 10 µM.
On to `NC(=O)C(=O)[C@H](Cc1ccccc1)NC(=O)c1c(Cl)cccc1Br` [Compound 14, (S)—N-(4-AMINO-3,4-DIOXO-1-PHENYLBUTAN-2-YL)-2-BROMO-6-CHLOROBENZAMIDE], for which the IC50 on Human Calpain 1/NS1 was under 3000 nM; at Human Calpain 9/NS1, under 3000 nM; in assay [1], 10 to 25 µM; at Human Calpain 2/NS1, under 3000 nM; in assay [2] it was under 10 µM.
For `NC(=O)C(=O)C(Cc1ccccc1)NC(=O)c1c(Cl)ccc2ccccc12` (centres unmarked) [Compound 13, N-(4-AMINO-3,4-DIOXO-1-PHENYLBUTAN-2-YL)-2-CHLORO-1-NAPHTHAMIDE], the IC50 at Human Calpain 1/NS1 was under 3000 nM; on Human Calpain 9/NS1 it was under 3000 nM; in assay [1] it was 10 to 25 µM; at Human Calpain 2/NS1 it was under 3000 nM; in assay [2], 10 to 25 µM.
Regarding `Cn1c2ccccc2c2cccc(C(=O)NC(Cc3ccccc3)C(=O)C(N)=O)c21` (centres unmarked) [Compound 12], the IC50 at Human Calpain 1/NS1 was under 3000 nM; at Human Calpain 9/NS1, under 3000 nM; in assay [1] it was over 25 µM; at Human Calpain 2/NS1, under 3000 nM; in assay [2] it was under 10 µM.
`NC(=O)C(=O)[C@H](Cc1ccccc1)NC(=O)c1c(F)cc(F)cc1F` [Compound 3, (S)—N-(4-AMINO-3,4-DIOXO-1-PHENYLBUTAN-2-YL)-2,4,6-TRIFLUOROBENZAMIDE]: the IC50 is under 3000 nM on Human Calpain 1/NS1; under 3000 nM at Human Calpain 9/NS1; over 25 µM in assay [1]; under 3000 nM at Human Calpain 2/NS1; 10 to 25 µM in assay [2].
Regarding `NC(=O)C(=O)[C@H](Cc1ccccc1)NC(=O)c1ccc(F)cc1` [Compound 28, (S)—N-(4-AMINO-3,4-DIOXO-1-PHENYLBUTAN-2-YL)-4-FLUOROBENZAMIDE], the IC50 was over 10000 nM on Human Calpain 1/NS1; 3000 to 10000 nM at Human Calpain 9/NS1; over 25 µM in assay [1]; 3000 to 10000 nM on Human Calpain 2/NS1; under 10 µM in assay [2].
With `O=CC(Cc1ccccc1)NC(=O)c1c(Cl)cccc1Cl` (centres unmarked) [Compound 45, 2,6-DICHLORO-N-(1-OXO-3-PHENYLPROPAN-2-YL)BENZAMIDE], the IC50 is under 3000 nM on Human Calpain 1/NS1; under 3000 nM on Human Calpain 9/NS1; 10 to 25 µM in assay [1]; under 3000 nM at Human Calpain 2/NS1; under 10 µM in assay [2].
For `O=CC(Cc1ccccc1)NC(=O)c1c(Cl)cccc1Br` (centres unmarked) [Compound 41, 2-BROMO-6-CHLORO-N-(1-OXO-3-PHENYLPROPAN-2-YL)BENZAMIDE], the IC50 was 3000 to 10000 nM on Human Calpain 1/NS1, under 3000 nM at Human Calpain 9/NS1, 10 to 25 µM in assay [1] and under 3000 nM on Human Calpain 2/NS1.
Turning to `NC(=O)C(=O)C(Cc1ccccc1)NC(=O)c1ccc2c(c1)OCO2` (centres unmarked) [Compound 24, N-(4-AMINO-3,4-DIOXO-1-PHENYLBUTAN-2-YL)BENZO[d][1,3]DIOXOLE-5-CARBOXAMIDE], the IC50 on Human Calpain 1/NS1 is 3000 to 10000 nM; at Human Calpain 9/NS1, under 3000 nM; in assay [1], over 25 µM; at Human Calpain 2/NS1, under 3000 nM.
As to `NC(=O)C(=O)[C@H](Cc1ccccc1)NC(=O)c1c(Cl)cccc1-c1ccccc1` [Compound 21, (S)—N-(4-AMINO-3,4-DIOXO-1-PHENYLBUTAN-2-YL)-3-CHLORO-[1,1′-BIPHENYL]-2-CARBOXAMIDE], the IC50 is under 3000 nM at Human Calpain 1/NS1, under 3000 nM on Human Calpain 9/NS1, under 3000 nM at Human Calpain 2/NS1 and over 25 µM in assay [2].
Take `NC(=O)C(=O)C(Cc1ccccc1)NC(=O)C1c2ccccc2Oc2ccccc21` (centres unmarked) [Compound 5, N-(4-AMINO-3,4-DIOXO-1-PHENYLBUTAN-2-YL)-9H-XANTHENE-9-CARBOXAMIDE]: the IC50 on Human Calpain 1/NS1 was under 3000 nM; at Human Calpain 9/NS1 it was under 3000 nM; in assay [1] it was over 25 µM; on Human Calpain 2/NS1 it was under 3000 nM.
